These results are taken from patent publication EP3118219A1, “NICOTINIC CHANNEL SUBUNITS OF […] AND THEIR USES THEREOF” (priority 2015, dated 2017).

For assay [1], the target named is T1, Apis mellifera nicotinic acetylcholine receptor Am-nAChRα7 (nAChR α7 subunit, SEQ ID NO: 7), expressed with ric3 (Apis mellifera, UniProt A0ACM8Q2V8).
T1 sequence (A0ACM8Q2V8 21-555): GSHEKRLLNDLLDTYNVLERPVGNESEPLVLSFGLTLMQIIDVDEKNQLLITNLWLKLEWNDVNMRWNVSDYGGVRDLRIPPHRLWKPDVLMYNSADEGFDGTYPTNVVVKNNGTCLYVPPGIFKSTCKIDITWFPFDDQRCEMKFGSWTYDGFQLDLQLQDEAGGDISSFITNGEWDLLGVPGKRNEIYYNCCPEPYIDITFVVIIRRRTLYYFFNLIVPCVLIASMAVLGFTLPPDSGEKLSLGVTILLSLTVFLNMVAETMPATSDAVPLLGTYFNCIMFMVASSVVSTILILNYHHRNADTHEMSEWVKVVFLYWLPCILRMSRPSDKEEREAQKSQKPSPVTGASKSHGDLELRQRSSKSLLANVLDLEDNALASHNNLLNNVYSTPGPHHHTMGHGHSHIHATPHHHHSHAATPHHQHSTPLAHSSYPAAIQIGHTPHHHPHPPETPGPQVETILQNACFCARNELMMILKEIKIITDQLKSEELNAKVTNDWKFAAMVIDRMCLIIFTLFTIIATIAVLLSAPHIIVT
Briefly: Two-electrode voltage-clamp dose-response on Xenopus laevis oocytes expressing the nAChRα7 subunit (with ric3). It is filed as cell-based. How it is done: (§1) For example, ric3 (from C.elegans, the nucleic acid sequence being SEQ ID NO: 64 and the amino acid sequence being SEQ ID NO: 65, or honeybee) is clearly necessary to get a reliable expression of the nAChR α7 subunit and a response to ACh, while for the nAChRα5 subunit a cocktail of emc6, unc50 and unc74 chaperone proteins improves expression with response amplitude between 0.1 to several µA for ACh concentration between 1 to 1000µM (Figure 2). In the case of the nAChRα3 subunits, expression can be obtain either alone, or in combination with different cocktails of chaperone or with the vertebrate β2 nAChR subunits. Each of these combinations has a specific affinity for ACh. […]
(§2) Typically, an oocyte, injected 2 to 5 days before with a given mixture of RNA is placed in the recording chamber filled with the desired solution (usually Na100). […] Both electrodes are then impaled into the oocyte and the resting membrane potential is measured (typically -30/- 50 mV). […] Sometime, the effect of a test compound can be determined directly, by applying 50 µl of the compound directly to the bath (with the main perfusion stopped) at the final working concentration (usually 100-1000 µM), after proper dilution from a stock solution (usually 10 mM in water or DMSO or ethanol) into the desired recording solution. […]

For assay [2], the system named is Apis mellifera nicotinic acetylcholine receptor Am-nAChRα5 (nAChRα5 subunit, SEQ ID NO: 5), expressed with unc74+unc50+emc6. Briefly: Two-electrode voltage-clamp dose-response on Xenopus laevis oocytes expressing the nAChRα5 subunit (with unc74+unc50+emc6). The settings on record: current in Xenopus oocytes, dose-response curve; traces at 500 µM (Figure 4). It is filed as cell-based. The procedure:
as §1, §2

In the case of `CN/C(=N\[N+](=O)[O-])NCc1cnc(Cl)s1` [clothianidin], the EC50 in assay [1] was around 10 µM. The “agonist efficacy compared with ACh” value in assay [1] (dose-response curves of ACh and clothianidin recorded on the same oocyte (Figure 4C)) was “less effective agonist than ACh”. For the same compound, the sensitivity to clothianidin result in assay [2] is recorded as “completely insensitive”.

What is called EC50 is the concentration at which the effect is half-maximal.
